Columns and labels:
Experiment in all cases: Test B pre-/postemergence plant response
Type in all cases: in vivo
[1] = test system: green foxtail (Setaria viridis)
In short: (§1)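 Visual scoring from 0 (no effect) to 100 (complete control) against untreated controls was done 13 to 15 days after greenhouse treatment. Chemicals were formulated in a surfactant-containing non-phytotoxic solvent and applied to soil preemergence or to 1- to 4-leaf (2-18 cm) plants postemergence.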

[2] = test system: catchweed bedstraw (Galium aparine); details: Preemergence
In short: as §1

[3] = test system: wheat (Triticum aestivum)
In short: as §1

[4] = test system: downy bromegrass (Bromus tectorum); details: for Bromegrass, Downy plant response rating: 8 g ai/ha
In short: as §1

[5] = test system: large crabgrass (Digitaria sanguinalis)
In short: as §1

[6] = test system: corn (Zea mays)
In short: as §1

[7] = test system: lambsquarters (Chenopodium album)
In short: as §1

[8] = test system: common (oilseed) sunflower (Helianthus annuus); details: Preemergence
In short: as §1

[9] = test system: velvetleaf (Abutilon theophrasti)
In short: as §1

[10] = test system: morningglory (Ipomoea coccinea)
In short: as §1

[11] = test system: giant foxtail (Setaria faberii)
In short: as §1

[12] = test system: wild oat (Avena fatua)
In short: as §1

[13] = test system: blackgrass (Alopecurus myosuroides); details: for Blackgrass plant response rating: 8 g ai/ha
In short: as §1

[14] = test system: bermudagrass (Cynodon dactylon); details: for Bermudagrass plant response rating: 8 g ai/ha
In short: as §1

[15] = 8 g ai/ha, postemergence, 0-100 scale
[16] = Postemergence, 16 g ai/ha, scale 0 to 100
[17] = Postemergence, 31 g ai/ha, scale 0 to 100, 0 no effect, 100 complete control
[18] = Postemergence, 62 g ai/ha, scale 0 to 100, 0 no effect, 100 complete control
[19] = Preemergence, 16 g ai/ha, scale 0 to 100 (0 no effect, 100 complete control)
[20] = Preemergence, 31 g ai/ha, 0 to 100 scale, 0 no effect, 100 complete control
[21] = Preemergence, 62 g ai/ha, scale 0 to 100
[22] = Preemergence, 8 g ai/ha, scale 0 to 100
[23] = 16 g ai/ha, scale 0 to 100 (0 no effect, 100 complete control)
[24] = 31 g ai/ha, 0 to 100 scale, 0 no effect, 100 complete control
[25] = Preemergence, scale 0 to 100 (0 no effect, 100 complete control)
[26] = Postemergence, 31 g ai/ha, scale 0 to 100
[27] = Preemergence, 31 g ai/ha, scale 0 to 100 (0 no effect, 100 complete control)
[28] = Preemergence, 62 g ai/ha, 0 to 100 scale, 0 no effect, 100 complete control
[29] = Preemergence, 16 g ai/ha, scale 0 to 100
[30] = 31 g ai/ha, scale 0 to 100 (0 no effect, 100 complete control)
[31] = 62 g ai/ha, 0 to 100 scale, 0 no effect, 100 complete control

Structure (SMILES): Cc1cc(-c2ccc(Cl)cc2)nn1-c1c(OS(C)(=O)=O)cnn(C)c1=O [Compound 36]
- Foxtail, Green plant response rating [1, 15]: 0
- Plant response rating, Foxtail, Green [1, 16]: 50
- Plant response rating, Foxtail, Green [1, 17]: 60
- Plant response rating, Foxtail, Green [1, 18]: 70
- Plant response rating, Foxtail, Green [1, 19]: 100
- Plant response rating, Foxtail, Green [1, 20]: 100
- Plant response rating, Foxtail, Green [1, 21]: 100
- Foxtail, Green plant response rating [1, 22]: 50
- Plant response rating, Galium [2, 23]: 0
- Plant response rating, Galium [2, 24]: 0
- Plant response rating, Galium ([2]; 62 g ai/ha, scale 0 to 100): 0
- Galium plant response rating ([2]; 8 g ai/ha, scale 0 to 100): 0
- Wheat plant response rating [3, 15]: 0
- Plant response rating, Wheat [3, 16]: 5
- Plant response rating, Wheat [3, 18]: 85
- Plant response rating, Wheat [3, 19]: 0
- Plant response rating, Wheat [3, 20]: 5
- Plant response rating, Wheat [3, 21]: 60
- Wheat plant response rating [3, 22]: 0
- Bromegrass, Downy plant response rating ([4]; postemergence, 0-100 scale): 0
- Plant response rating, Bromegrass, Downy [4, 16]: 5
- Plant response rating, Bromegrass, Downy [4, 17]: 40
- Plant response rating, Bromegrass, Downy [4, 18]: 50
- Plant response rating, Bromegrass, Downy [4, 19]: 50
- Plant response rating, Bromegrass, Downy [4, 20]: 50
- Plant response rating, Bromegrass, Downy [4, 21]: 90
- Bromegrass, Downy plant response rating ([4]; Preemergence, scale 0 to 100): 0
- Crabgrass, Large plant response rating [5, 15]: 50
- Plant response rating, Crabgrass, Large [5, 16]: 65
- Plant response rating, Crabgrass, Large [5, 17]: 90
- Plant response rating, Crabgrass, Large [5, 18]: 100
- Plant response rating, Crabgrass, Large [5, 19]: 98
- Plant response rating, Crabgrass, Large [5, 20]: 100
- Plant response rating, Crabgrass, Large [5, 21]: 100
- Crabgrass, Large plant response rating [5, 22]: 98
- Corn plant response rating [6, 15]: 10
- Plant response rating, Corn [6, 16]: 15
- Plant response rating, Corn [6, 17]: 15
- Plant response rating, Corn [6, 18]: 40
- Plant response rating, Corn [6, 19]: 55
- Plant response rating, Corn [6, 20]: 70
- Plant response rating, Corn [6, 21]: 95
- Corn plant response rating [6, 22]: 40
- Lambsquarters plant response rating [7, 15]: 0
- Plant response rating, Lambsquarters [7, 16]: 0
- Plant response rating, Lambsquarters [7, 17]: 0
- Plant response rating, Lambsquarters [7, 18]: 0
- Plant response rating, Lambsquarters [7, 19]: 0
- Plant response rating, Lambsquarters [7, 20]: 0
- Plant response rating, Lambsquarters [7, 21]: 0
- Lambsquarters plant response rating [7, 22]: 0
- Plant response rating, Sunflower [8, 23]: 0
- Plant response rating, Sunflower [8, 24]: 0
- Plant response rating, Sunflower ([8]; 62 g ai/ha, scale 0 to 100): 0
- Sunflower plant response rating ([8]; 8 g ai/ha, scale 0 to 100): 0
- Velvetleaf plant response rating [9, 15]: 0
- Plant response rating, Velvetleaf [9, 16]: 0
- Plant response rating, Velvetleaf [9, 18]: 0
- Plant response rating, Velvetleaf [9, 19]: 0
- Plant response rating, Velvetleaf [9, 20]: 0
- Plant response rating, Velvetleaf [9, 21]: 0
- Velvetleaf plant response rating [9, 22]: 0
- Morningglory plant response rating [10, 15]: 0
- Plant response rating, Morningglory [10, 16]: 0
- Plant response rating, Morningglory [10, 17]: 0
- Plant response rating, Morningglory [10, 18]: 0
- Plant response rating, Morningglory [10, 19]: 0
- Plant response rating, Morningglory [10, 20]: 0
- Plant response rating, Morningglory [10, 21]: 0
- Morningglory plant response rating [10, 22]: 0
- Foxtail, Giant plant response rating [11, 15]: 0
- Plant response rating, Foxtail, Giant [11, 16]: 35
- Plant response rating, Foxtail, Giant [11, 17]: 60
- Plant response rating, Foxtail, Giant [11, 18]: 60
- Plant response rating, Foxtail, Giant [11, 19]: 100
- Plant response rating, Foxtail, Giant [11, 20]: 100
- Plant response rating, Foxtail, Giant [11, 21]: 100
- Foxtail, Giant plant response rating [11, 22]: 100
- Oat, Wild plant response rating [12, 15]: 0
- Plant response rating, Oat, Wild [12, 16]: 50
- Plant response rating, Oat, Wild [12, 17]: 60
- Plant response rating, Oat, Wild [12, 18]: 90
- Plant response rating, Oat, Wild [12, 19]: 50
- Plant response rating, Oat, Wild [12, 20]: 90
- Plant response rating, Oat, Wild [12, 21]: 95
- Oat, Wild plant response rating [12, 22]: 0
- Blackgrass plant response rating ([13]; postemergence, 0-100 scale): 0
- Plant response rating, Blackgrass [13, 16]: 50
- Plant response rating, Blackgrass [13, 17]: 50
- Plant response rating, Blackgrass [13, 18]: 80
- Plant response rating, Blackgrass [13, 19]: 80
- Plant response rating, Blackgrass [13, 20]: 100
- Plant response rating, Blackgrass [13, 21]: 100
- Blackgrass plant response rating ([13]; Preemergence, scale 0 to 100): 80
- Bermudagrass plant response rating ([14]; postemergence, 0-100 scale): 40
- Plant response rating, Bermudagrass [14, 16]: 80
- Plant response rating, Bermudagrass [14, 17]: 100
- Plant response rating, Bermudagrass [14, 18]: 100
- Bermudagrass plant response rating [14, 25]: 98
- Plant response rating, Bermudagrass [14, 19]: 100
- Plant response rating, Bermudagrass [14, 20]: 100
- Plant response rating, Bermudagrass [14, 21]: 100

Structure (SMILES): Cc1cc(-c2ccc(Cl)cc2)nn1-c1c(OC(=O)OCC(C)C)cnn(C)c1=O [Compound 57]
- Foxtail, Green plant response rating [1, 15]: 80
- Plant response rating, Foxtail, Green [1, 16]: 95
- Plant response rating, Foxtail, Green [1, 26]: 100
- Plant response rating, Foxtail, Green [1, 18]: 100
- Plant response rating, Foxtail, Green [1, 27]: 100
- Plant response rating, Foxtail, Green [1, 28]: 100
- Foxtail, Green plant response rating [1, 22]: 70
- Foxtail, Green plant response rating [1, 29]: 100
- Plant response rating, Galium [2, 30]: 0
- Plant response rating, Galium [2, 31]: 0
- Galium plant response rating ([2]; 8 g ai/ha, scale 0 to 100): 0
- Galium plant response rating ([2]; 16 g ai/ha, scale 0 to 100): 0
- Wheat plant response rating [3, 15]: 30
- Plant response rating, Wheat [3, 16]: 45
- Plant response rating, Wheat [3, 26]: 90
- Plant response rating, Wheat [3, 18]: 90
- Plant response rating, Wheat [3, 27]: 40
- Plant response rating, Wheat [3, 28]: 50
- Wheat plant response rating [3, 29]: 15
- Bromegrass, Downy plant response rating ([4]; postemergence, 0-100 scale): 0
- Plant response rating, Bromegrass, Downy [4, 16]: 20
- Plant response rating, Bromegrass, Downy [4, 26]: 50
- Plant response rating, Bromegrass, Downy [4, 18]: 60
- Plant response rating, Bromegrass, Downy [4, 19]: 0
- Plant response rating, Bromegrass, Downy [4, 27]: 65
- Plant response rating, Bromegrass, Downy [4, 28]: 70
- Bromegrass, Downy plant response rating ([4]; Preemergence, scale 0 to 100): 0
- Crabgrass, Large plant response rating [5, 15]: 75
- Plant response rating, Crabgrass, Large [5, 16]: 95
- Plant response rating, Crabgrass, Large [5, 26]: 98
- Plant response rating, Crabgrass, Large [5, 18]: 100
- Plant response rating, Crabgrass, Large [5, 27]: 98
- Plant response rating, Crabgrass, Large [5, 28]: 100
- Crabgrass, Large plant response rating [5, 22]: 0
- Crabgrass, Large plant response rating [5, 29]: 0
- Corn plant response rating [6, 15]: 0
- Plant response rating, Corn [6, 16]: 0
- Plant response rating, Corn [6, 26]: 98
- Plant response rating, Corn [6, 18]: 100
- Plant response rating, Corn [6, 27]: 85
- Plant response rating, Corn [6, 28]: 95
- Corn plant response rating [6, 22]: 0
- Corn plant response rating [6, 29]: 60
- Lambsquarters plant response rating [7, 15]: 0
- Plant response rating, Lambsquarters [7, 16]: 0
- Plant response rating, Lambsquarters [7, 26]: 0
- Plant response rating, Lambsquarters [7, 18]: 0
- Plant response rating, Lambsquarters [7, 27]: 20
- Plant response rating, Lambsquarters [7, 28]: 65
- Lambsquarters plant response rating [7, 22]: 0
- Lambsquarters plant response rating [7, 29]: 0
- Plant response rating, Sunflower [8, 30]: 0
- Plant response rating, Sunflower [8, 31]: 0
- Sunflower plant response rating ([8]; 8 g ai/ha, scale 0 to 100): 0
- Sunflower plant response rating ([8]; 16 g ai/ha, scale 0 to 100): 0
- Velvetleaf plant response rating [9, 15]: 0
- Plant response rating, Velvetleaf [9, 16]: 0
- Plant response rating, Velvetleaf [9, 26]: 0
- Plant response rating, Velvetleaf [9, 18]: 0
- Plant response rating, Velvetleaf [9, 27]: 0
- Plant response rating, Velvetleaf [9, 28]: 0
- Velvetleaf plant response rating [9, 22]: 0
- Velvetleaf plant response rating [9, 29]: 0
- Morningglory plant response rating [10, 15]: 0
- Plant response rating, Morningglory [10, 16]: 0
- Plant response rating, Morningglory [10, 26]: 0
- Plant response rating, Morningglory [10, 18]: 0
- Plant response rating, Morningglory [10, 27]: 0
- Plant response rating, Morningglory [10, 28]: 0
- Morningglory plant response rating [10, 22]: 0
- Morningglory plant response rating [10, 29]: 0
- Foxtail, Giant plant response rating [11, 15]: 80
- Plant response rating, Foxtail, Giant [11, 16]: 95
- Plant response rating, Foxtail, Giant [11, 26]: 98
- Plant response rating, Foxtail, Giant [11, 18]: 100
- Plant response rating, Foxtail, Giant [11, 27]: 100
- Plant response rating, Foxtail, Giant [11, 28]: 100
- Foxtail, Giant plant response rating [11, 22]: 98
- Foxtail, Giant plant response rating [11, 29]: 98
- Oat, Wild plant response rating [12, 15]: 85
- Plant response rating, Oat, Wild [12, 16]: 85
- Plant response rating, Oat, Wild [12, 26]: 95
- Plant response rating, Oat, Wild [12, 18]: 98
- Plant response rating, Oat, Wild [12, 27]: 70
- Plant response rating, Oat, Wild [12, 28]: 80
- Oat, Wild plant response rating [12, 22]: 0
- Oat, Wild plant response rating [12, 29]: 60
- Blackgrass plant response rating ([13]; postemergence, 0-100 scale): 40
- Plant response rating, Blackgrass [13, 16]: 80
- Plant response rating, Blackgrass [13, 26]: 80
- Plant response rating, Blackgrass [13, 18]: 95
- Plant response rating, Blackgrass [13, 19]: 100
- Plant response rating, Blackgrass [13, 27]: 100
- Plant response rating, Blackgrass [13, 28]: 100
- Blackgrass plant response rating ([13]; Preemergence, scale 0 to 100): 40
- Bermudagrass plant response rating ([14]; postemergence, 0-100 scale): 65
- Plant response rating, Bermudagrass [14, 16]: 85
- Plant response rating, Bermudagrass [14, 26]: 98
- Plant response rating, Bermudagrass [14, 18]: 100
- Bermudagrass plant response rating [14, 25]: 100
- Plant response rating, Bermudagrass [14, 19]: 100
- Plant response rating, Bermudagrass [14, 27]: 100
- Plant response rating, Bermudagrass [14, 28]: 100
